Reference: patent EP0551953A2, “17-(Pyridazine-N-oxide)-substituted steroidal compounds active on the cardiovascular system” (ZAMBON GROUP S.p.A., priority 1992, dated 1993)

system: alpha₃ isoform of rat (Na⁺+K⁺)-ATPase; assay: Displacement of [3H]-ouabain, alpha3 isoform, rat brain preparation; format: binding; details: not given
Description: The activity of the compounds of formula II has been evaluated with the binding test on the alpha₁ and alpha₃ isoforms of rat (Na⁺+K⁺)-ATPase in rat kidney and rat brain, according to the method described by Noel F. et al., Biochemical Pharmacology, 40(12), pp 2611-2616, (1990) (see Example 2).
Evaluation of the interaction with the alpha₁ and alpha₃ isoforms of rat (Na⁺+K⁺)-ATPase
The method of Noel F. et al., Biochemical Pharmacology, 40(12), pp. 2611-2616, (1990) was used to evaluate the displacement of [³H]-ouabain in preparations of rat kidney and rat brain, containing various concentrations of nerifolin, 3beta-(alpha-L-tevetopyranosyloxy)-14-hydroxy-17beta-(4-pyridazil)-5beta,14beta-androstane (compound R), compound 5 and compound 6 and the corresponding genins, respectively, digitoxygenin, 3beta,14-dihydroxy-17beta-(4-pyridazil)-5beta,14beta-androstane (genin 1), 3beta,14-dihydroxy-17beta-(4-pyridazinyl-2-N-oxide)-5beta,14beta-androstane (genin 2) and 3beta,14-dihydroxy-17beta-(4-pyridazinyl-1-N-oxide)-5beta,14beta-androstane (genin 3).

SMILES	K₁(alpha₁)/K₁(alpha₃)
C[C@]12CC[C@H](O)C[C@H]1CC[C@@H]1[C@@H]2CC[C@]2(C)[C@@H](C3=CC(=O)OC3)CC[C@]12O [Digitoxygenin, digitoxygenin]	37

same assay, conditions: selectivity index, alpha₁ (rat kidney) versus alpha₃ (rat brain)

SMILES	K₁(alpha₁)/K₁(alpha₃)
CO[C@H]1[C@H](O)[C@H](O[C@H]2CC[C@@]3(C)[C@H](CC[C@@H]4[C@@H]3CC[C@]3(C)[C@@H](c5ccn[n+]([O-])c5)CC[C@]43O)C2)O[C@@H](C)[C@@H]1O [Compound 5, 3beta-(alfa-L-tevetopyranosyloxy)-14-hydroxy-17beta-(4-pyridazinyl-2-N-oxide)-5beta,14beta-androstane]	≧1258
CO[C@H]1[C@H](O)[C@H](O[C@H]2CC[C@@]3(C)[C@H](CC[C@@H]4[C@@H]3CC[C@]3(C)[C@@H](c5cc[n+]([O-])nc5)CC[C@]43O)C2)O[C@@H](C)[C@@H]1O [Compound 6, 3beta-(alfa-L-tevetopyranosyloxy)-14-hydroxy-17beta-(4-pyridazinyl-1-N-oxide)-5beta,14beta-androstane]	≧1000
CO[C@H]1[C@H](O)[C@H](O[C@H]2CC[C@@]3(C)[C@H](CC[C@@H]4[C@@H]3CC[C@]3(C)[C@@H](c5ccnnc5)CC[C@]43O)C2)O[C@@H](C)[C@@H]1O [Compound R, 3beta-(alpha-L-tevetopyranosyloxy)-14-hydroxy-17beta-(4-pyridazil)-5beta,14beta-androstane]	63
C[C@]12CC[C@H](O)C[C@H]1CC[C@@H]1[C@@H]2CC[C@]2(C)[C@@H](c3ccnnc3)CC[C@]12O [Genin 1, 3beta,14-dihydroxy-17beta-(4-pyridazil)-5beta,14beta-androstane]	96
CO[C@H]1[C@H](O)[C@H](O[C@H]2CC[C@@]3(C)[C@H](CC[C@@H]4[C@@H]3CC[C@]3(C)[C@@H](C5=CC(=O)OC5)CC[C@]43O)C2)O[C@@H](C)[C@@H]1O [Nerifolin, nerifolin]	90
